The record followed here is PubChem BioAssay AID330 (DTP/NCI, 2004).

The test system of the assay is P388 leukemia ip, CD2F1 mice, survival T/C. In words: NCI In Vivo Anticancer Drug Screen. Data for tumor model P388 Leukemia (intraperitoneal) in CD2F1 (CDF1) mice. As to conditions: endpoint: median survival time, higher = longer survival. Put shortly: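 Mice carrying the transplanted tumor received test compound or vehicle. Survival was recorded in each group, and the value is the treated-group measurement divided by that of the vehicle-treated control group.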

[1] abbreviates: dose: 50.0 mg/kg/injection, schedule: Q01DX009 (ip), vehicle: Klucel (hydroxypropylcellulose) (HPC).
Setting [2] is: dose: 100.0 mg/kg/injection, schedule: Q04DX002 (ip), vehicle: saline.
[3] abbreviates: dose: 200.0 mg/kg/injection, schedule: Q04DX002 (ip), vehicle: saline.

The structures appear in SMILES notation. Several values for one entry are separate records, joined by “and”; a condition that tells them apart may be missing. Equal values may be shown once. Inconclusive results and toxic doses are left out.

In the case of `SC1(S)CCCN(Cc2ccccc2)C1`, the T/C is 105 % of control (dose: 25.0 mg/kg/injection, schedule: Q01DX005 (ip), vehicle: saline); 108 % of control (dose: 50.0 mg/kg/injection, schedule: Q01DX005 (ip), vehicle: saline); 103 % of control (dose: 100.0 mg/kg/injection, schedule: Q01DX005 (ip), vehicle: saline); 105 % of control (dose: 200.0 mg/kg/injection, schedule: Q01DX005 (ip), vehicle: saline).
Turning to `CCN1/C(=C/C=C2\CCC(/C=C/c3sc4ccc(Cl)cc4[n+]3CC)=C2N(c2ccccc2)c2ccccc2)Sc2ccc(Cl)cc21`, the T/C (dose: 6.25 mg/kg/injection, schedule: Q01DX009 (ip), vehicle: Klucel (hydroxypropylcellulose) (HPC)) is 156 % of control and the T/C under setting [1] was 107 % of control.
In the case of `Cc1[nH]c(=O)[nH]c(=O)c1C(=O)O`, the T/C runs as follows: (dose: 50.0 mg/kg/injection, schedule: Q01DX009 (ip), vehicle: saline with Tween-80) 100 % of control; (dose: 100.0 mg/kg/injection, schedule: Q01DX009 (ip), vehicle: saline with Tween-80) 105 % of control; (dose: 200.0 mg/kg/injection, schedule: Q01DX009 (ip), vehicle: saline with Tween-80) 99 % of control.
Consider `O=c1[nH]c(=O)c2nc(-c3cccc([N+](=O)[O-])c3)cnc2[nH]1`, for which the T/C runs as follows: under setting [2], 101 % of control; under setting [3], 113 % of control; (dose: 400.0 mg/kg/injection, schedule: Q04DX002 (ip), vehicle: saline) 106 % of control.
Turning to `Cc1cc(=O)c2ccc3c(c2[nH]1)Oc1ccc2c(=O)cc(C)[nH]c2c1O3`, the T/C was 98 % of control (dose: 50.0 mg/kg/injection, schedule: Q01DX005 (ip), vehicle: saline with Tween-80); 101 % of control (dose: 100.0 mg/kg/injection, schedule: Q01DX005 (ip), vehicle: saline with Tween-80); 98 % of control (dose: 200.0 mg/kg/injection, schedule: Q01DX005 (ip), vehicle: saline with Tween-80).
In the case of `CCNC(CC)CCCNc1cc(OC)cc2cccnc12` (stereo not drawn), the T/C was 106 % of control (dose: 6.25 mg/kg/injection, schedule: Q01DX005 (ip), vehicle: saline with Tween-80); 98 % of control (dose: 12.5 mg/kg/injection, schedule: Q01DX005 (ip), vehicle: saline with Tween-80); 102 % of control (dose: 25.0 mg/kg/injection, schedule: Q01DX005 (ip), vehicle: saline with Tween-80).
On to `O=Cc1cc(C=O)c2ccc(=O)[nH]c2n1`, for which the T/C is, setting by setting: (dose: 60.0 mg/kg/injection, schedule: Q01DX005 (ip), vehicle: Klucel (hydroxypropylcellulose) (HPC)) 109 % of control; (dose: 120.0 mg/kg/injection, schedule: Q01DX005 (ip), vehicle: Klucel (hydroxypropylcellulose) (HPC)) 114 % of control.
In the case of `O=C(CNC(=O)OCc1ccccc1)NCC(=O)NC(Cc1c[nH]c2ccccc12)C(=O)O` (stereo not drawn), the T/C (dose: 50.0 mg/kg/injection, schedule: Q01DX005 (ip), vehicle: suspension in saline) is 99 % of control; the T/C (dose: 100.0 mg/kg/injection, schedule: Q01DX005 (ip), vehicle: suspension in saline) is 97 % of control; the T/C (dose: 200.0 mg/kg/injection, schedule: Q01DX005 (ip), vehicle: suspension in saline) is 105 % of control.
For the compound `COc1cc(C(=O)NC2CCc3cc(OC)c(OC)c(OC)c3-c3ccc(OC)c(=O)cc32)cc(OC)c1OC` (stereo not drawn), the T/C is 119 % of control (dose: 1.25 mg/kg/injection, schedule: Q01DX009 (ip), vehicle: Klucel (hydroxypropylcellulose) (HPC)); 124 % of control (dose: 2.5 mg/kg/injection, schedule: Q01DX009 (ip), vehicle: Klucel (hydroxypropylcellulose) (HPC)); 152 % of control and 154 % of control (dose: 10.0 mg/kg/injection, schedule: Q01DX009 (ip), vehicle: Klucel (hydroxypropylcellulose) (HPC)); 155 % of control and 163 % of control (dose: 20.0 mg/kg/injection, schedule: Q01DX009 (ip), vehicle: Klucel (hydroxypropylcellulose) (HPC)).
As for `CCN(Cc1cc(Nc2ccnc3cc(Cl)ccc23)ccc1O)C(=O)N1CCN(C)CC1`, the T/C (dose: 100.0 mg/kg/injection, schedule: Q04DX002 (ip), vehicle: Klucel (hydroxypropylcellulose) (HPC)) is 100 % of control; the T/C (dose: 200.0 mg/kg/injection, schedule: Q04DX002 (ip), vehicle: Klucel (hydroxypropylcellulose) (HPC)) is 96 % of control; the T/C (dose: 400.0 mg/kg/injection, schedule: Q04DX002 (ip), vehicle: Klucel (hydroxypropylcellulose) (HPC)) is 96 % of control.
On to `N#Cc1ccc(NC(=O)Nc2cccc(C#N)c2)cc1`, for which the T/C was 100 % of control and 103 % of control (dose: 30.0 mg/kg/injection, schedule: Q01DX005 (ip), vehicle: saline with Tween-80); 89 % of control and 92 % of control and 94 % of control (dose: 60.0 mg/kg/injection, schedule: Q01DX005 (ip), vehicle: saline with Tween-80); 91 % of control and 94 % of control (dose: 120.0 mg/kg/injection, schedule: Q01DX005 (ip), vehicle: saline with Tween-80); 94 % of control (dose: 240.0 mg/kg/injection, schedule: Q01DX005 (ip), vehicle: saline with Tween-80).
Turning to `CC(=O)OCC1OC(OC2=C(CC=C(C)C)C(=O)c3ccccc3C2=O)C(OC(C)=O)C(OC(C)=O)C1OC(C)=O` (stereo not drawn), the T/C was 100 % of control (dose: 25.0 mg/kg/injection, schedule: Q04DX003 (ip), vehicle: saline with Tween-80); 102 % of control (dose: 50.0 mg/kg/injection, schedule: Q04DX003 (ip), vehicle: saline with Tween-80); 94 % of control (dose: 100.0 mg/kg/injection, schedule: Q04DX003 (ip), vehicle: saline with Tween-80); 114 % of control (dose: 200.0 mg/kg/injection, schedule: Q04DX003 (ip), vehicle: saline with Tween-80).
Turning to `COC(=O)[C@@]12OC[C@]34C([C@@H](O)C1O)[C@@]1(C)CC(=O)C(O)=C(C)C1C[C@H]3OC(=O)[C@H](OC(=O)c1ccccc1Cl)[C@H]42` (stereo partly drawn), the T/C (dose: 0.25 mg/kg/injection, schedule: Q01DX005 (ip), vehicle: DMSO) is 110 % of control; the T/C (dose: 0.5 mg/kg/injection, schedule: Q01DX005 (ip), vehicle: DMSO) is 110 % of control; the T/C (dose: 1.0 mg/kg/injection, schedule: Q01DX005 (ip), vehicle: DMSO) was 105 % of control and 97 % of control; the T/C (dose: 2.0 mg/kg/injection, schedule: Q01DX005 (ip), vehicle: DMSO) was 107 % of control and 112 % of control; the T/C (dose: 4.0 mg/kg/injection, schedule: Q01DX005 (ip), vehicle: DMSO) was 109 % of control; the T/C (dose: 8.0 mg/kg/injection, schedule: Q01DX005 (ip), vehicle: DMSO) was 101 % of control and 107 % of control. Also, the T/C (dose: 16.0 mg/kg/injection, schedule: Q01DX005 (ip), vehicle: DMSO) is 108 % of control and the T/C (dose: 32.0 mg/kg/injection, schedule: Q01DX005 (ip), vehicle: DMSO) was 107 % of control.
As to `NC(CSC(c1ccccc1)(c1ccccc1)c1ccccc1)C(=O)OC(c1ccccc1)c1ccccc1` (stereo not drawn), the T/C runs as follows: (dose: 400.0 mg/kg/injection, schedule: Q04DX003 (ip), vehicle: saline with Tween-80) 150 % of control and 154 % of control; (dose: 600.0 mg/kg/injection, schedule: Q04DX003 (ip), vehicle: saline with Tween-80) 109 % of control.
As to `Nc1cc(C(CC(=O)NO)NO)ccc1[N+](=O)[O-]` (stereo not drawn), the T/C under setting [1] is 94 % of control; the T/C (dose: 100.0 mg/kg/injection, schedule: Q01DX009 (ip), vehicle: Klucel (hydroxypropylcellulose) (HPC)) was 110 % of control; the T/C (dose: 200.0 mg/kg/injection, schedule: Q01DX009 (ip), vehicle: Klucel (hydroxypropylcellulose) (HPC)) is 102 % of control.
With `COc1ccc(-c2c3ccc(OC)cc3n3ccccc23)cc1`, the T/C reads like this: (dose: 100.0 mg/kg/injection, schedule: Q01DX002 (ip), vehicle: saline with Tween-80) 99 % of control; (dose: 200.0 mg/kg/injection, schedule: Q01DX002 (ip), vehicle: saline with Tween-80) 97 % of control; (dose: 400.0 mg/kg/injection, schedule: Q01DX002 (ip), vehicle: saline with Tween-80) 107 % of control.
Turning to `CNC1CCCCC1[N+](C)(C)C` (stereo not drawn), the T/C (dose: 5.0 mg/kg/injection, schedule: Q01DX009 (ip), vehicle: saline sonified) was 95 % of control; the T/C (dose: 10.0 mg/kg/injection, schedule: Q01DX009 (ip), vehicle: saline sonified) is 100 % of control; the T/C (dose: 20.0 mg/kg/injection, schedule: Q01DX009 (ip), vehicle: saline sonified) was 100 % of control.
In the case of `CCOP(=O)(Nc1ccc(OC)cc1)OCC`, the T/C is 103 % of control (dose: 50.0 mg/kg/injection, schedule: Q01DX009 (ip), vehicle: saline); 108 % of control (dose: 100.0 mg/kg/injection, schedule: Q01DX009 (ip), vehicle: saline); 111 % of control (dose: 200.0 mg/kg/injection, schedule: Q01DX009 (ip), vehicle: saline).
Turning to `C=Cc1c2[n-]c(c1C)/C=C1\[N-]/C(=C3\c4[n-]c(c(C)c4C(=O)C3C(=O)O)/C=c3\[n-]/c(c(C)c3CC)=C\2)C(CCC(=O)O)C1C.[Pt+4]` (stereo not drawn), the T/C is 100 % of control (dose: 50.0 mg/kg/injection, schedule: Q04DX002 (ip), vehicle: saline); 90 % of control under setting [2]; 88 % of control under setting [3].
